Assay results as given in the NIST ThermoML archive (doi:10.1016/j.jct.2018.12.009).

Settings: for vapor or sublimation pressure: Liquid, Closed cell (Static) method; for mass density: Fluid (supercritical or subcritical phases), isochoric method

CC(C)O [propan-2-ol]
Settings	vapor or sublimation pressure [kPa]
301.24 K	7
314.26 K	15
314.29 K	15
314.52 K	15
314.8 K	16
315.05 K	16
315.3 K	16
315.42 K	16
315.61 K	16
315.8 K	17
341.91 K	57
342.03 K	57
342.08 K	57
342.2 K	57
342.32 K	58
342.49 K	58
342.67 K	58
342.79 K	59
342.91 K	59
343.03 K	59
369.05 K	169
369.13 K	169
369.16 K	169
369.28 K	170
369.39 K	171
369.5 K	171
369.67 K	172
369.84 K	173
369.96 K	174
370.07 K	175
391.32 K	358
391.5 K	360
391.53 K	360
391.54 K	360
391.65 K	362
391.76 K	363
391.87 K	364
391.98 K	366
392.09 K	367
392.2 K	368
416.55 K	732
416.65 K	734
416.73 K	736
416.76 K	736
416.86 K	739
416.97 K	741
417.08 K	743
417.18 K	745
417.29 K	747
417.4 K	749
417.5 K	756
442.12 K	1367
442.14 K	1368
442.23 K	1371
442.33 K	1374
442.43 K	1377
442.54 K	1381
442.64 K	1383
442.74 K	1386
442.85 K	1389
463.48 K	2136
463.56 K	2140
463.58 K	2141
463.78 K	2149
463.83 K	2152
463.97 K	2158
464.18 K	2166
464.27 K	2171
464.42 K	2177
464.97 K	2201
465.27 K	2213
465.34 K	2217
468.1 K	2330
482.51 K	3081
482.6 K	3085
482.7 K	3089
482.72 K	3090
482.8 K	3093
482.89 K	3098
482.99 K	3102
483.09 K	3106
483.18 K	3110
500.85 K	4213
500.95 K	4219
501.04 K	4224
501.08 K	4226
501.14 K	4229
501.23 K	4235
501.33 K	4240
501.42 K	4245
501.53 K	4251
501.62 K	4256
501.81 K	4267
501.9 K	4272
503.92 K	4428
504.02 K	4438
504.03 K	4436
504.11 K	4366
504.31 K	4456
504.5 K	4470
504.59 K	4477
504.98 K	4504
505.06 K	4521
505.08 K	4522
505.27 K	4536
505.37 K	4544
506.43 K	4667
506.53 K	4675
506.61 K	4648
506.62 K	4682
506.72 K	4690
506.82 K	4697
506.96 K	4708
506.97 K	4709
507.11 K	4720
507.2 K	4727
507.3 K	4735
507.4 K	4743
507.5 K	4750
507.59 K	4757
507.69 K	4765
507.79 K	4773
507.89 K	4781
508.04 K	4793
508.16 K	4803

Settings	mass density [kg/m3]
508.16 K, 4803 kPa	329.2
508.18 K, 4804 kPa	329.2
508.28 K, 4813 kPa	329.2
508.37 K, 4822 kPa	329.2
508.47 K, 4831 kPa	329.2
508.57 K, 4840 kPa	329.2
508.67 K, 4849 kPa	329.2
508.76 K, 4858 kPa	329.2
509.35 K, 4911 kPa	329.2
509.45 K, 4920 kPa	329.2
509.5 K, 5095 kPa	329.2
509.55 K, 4929 kPa	329.2
509.64 K, 4938 kPa	329.2
509.79 K, 4951 kPa	329.2
509.99 K, 4967 kPa	329.2
510.14 K, 4981 kPa	329.2
510.23 K, 4990 kPa	329.2
510.33 K, 4999 kPa	329.2
510.48 K, 5012 kPa	329.2
510.93 K, 5271 kPa	329.2
516.9 K, 5603 kPa	329.2
516.99 K, 5611 kPa	329.2
517.08 K, 5619 kPa	329.2
517.27 K, 5637 kPa	329.2
521.87 K, 6056 kPa	329.2
521.96 K, 6064 kPa	329.2
522.14 K, 6080 kPa	329.2
522.33 K, 6397 kPa	329.2
522.42 K, 6405 kPa	329.2
522.51 K, 6414 kPa	329.2
522.6 K, 6495 kPa	329.2
